We go through 24 compounds from patent US20070232681A1, “Compounds Having Crth2 Antagonist Activity” (Oxagen Limited, priority 2003, published 2007).

The target of experiment [1] is T1, CRTH2 (Homo sapiens, UniProt Q9Y5Y4).
T1 construct: expressed in transfected cells; host or cells: Chinese Hamster Ovary (CHO) cells, G418 selected
T1 sequence (Q9Y5Y4 1-395): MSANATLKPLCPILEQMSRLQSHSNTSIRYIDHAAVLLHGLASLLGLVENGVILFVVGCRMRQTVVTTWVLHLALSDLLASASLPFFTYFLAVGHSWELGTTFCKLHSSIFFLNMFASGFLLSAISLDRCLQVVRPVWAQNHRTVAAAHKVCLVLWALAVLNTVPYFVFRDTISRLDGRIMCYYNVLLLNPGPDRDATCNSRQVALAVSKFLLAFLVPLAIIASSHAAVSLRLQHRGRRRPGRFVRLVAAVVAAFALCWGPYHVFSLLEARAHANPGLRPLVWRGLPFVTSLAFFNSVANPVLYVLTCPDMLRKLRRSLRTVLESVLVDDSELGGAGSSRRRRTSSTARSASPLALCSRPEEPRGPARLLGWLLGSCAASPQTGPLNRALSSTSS
The experiment can be described thus: [3H]PGD2 radioligand binding on CHO/CRTH2 cell membranes. Conditions: competition versus [3H]PGD2, CHO/CRTH2 membranes. As to the method:
(§1) Chinese Hamster Ovary cells were transfected with CRTH2 or DP receptors (CHO/CRTH2 and CHO/DP) and were maintained in culture in a humidified atmosphere at 37° C. (5% CO2) in Minimum Essential Medium (MEM) supplemented with 10% foetal bovine serum, 2 mM glutamine, and 1 mg ml^−1 active G418. The cells were passaged every 2-3 days. For radioligand binding assay, cells were prepared in triple-layer flasks or in 175 cm^2 square flasks (for membrane preparation). For calcium mobilisation assay, cells were grown in a 96 well plate 24 h prior to the assay at a density of 80,000 cells per well.
(§2) Membranes were prepared either from CHO/CRTH2 and CHO/DP cells, or from platelets (as a source of TP receptors). CHO cells grown to confluency were washed with PBS and detached using a Versene solution (15 ml per flask). When the cells were grown in 175 cm^2 square flask, they were collected by scrapping in PBS. The cell suspensions were centrifuged (1,700 rpm, 10 min, 4° C.) and resuspended in 15 ml of buffer (1×HBSS, supplemented with 10 mM HEPES, pH 7.3). Cell suspensions were then homogenised using an Ultra Turrax at setting 4-6 for 20 s. The homogenate was centrifuged at 1,700 rpm for 10 min and the supernatant was collected and centrifuged at 20,000 rpm for 1 h at 4° C. The resulting pellet was resuspended in buffer and stored at −80° C. in aliquots of 200-500 μl. The protein concentration was determined by the method of Bradford (1976), using bovine serum albumin as standard. The platelets were washed by centrifugation at 600×g for 10 min and resuspended in ice-cold assay buffer (10 mM Tris-HCl, pH 7.4, 5 mM Glucose, 120 mM NaCl, 10 μM indomethacin) and directly centrifuged at 20,000 rpm for 30 min at 4° C. The resulting pellet was treated as described above.
(§3) [3H]PGD2 (160 Ci/mmol) binding experiments were performed on membranes prepared as described above. Assays were performed in a final volume of 100 μl of buffer (1×HBSS/HEPES 10 mM, pH 7.3). Cell membranes (15 μg). Cell membranes […] were preincubated at room temperature with varying concentration of competing ligand for 15 min. [3H]PGD2 ([…]) was then added and the incubation continued for a further one hour at room temperature. The reaction was terminated by the addition of 200 μl ice-cold assay buffer to each well, followed by rapid filtration through Whatman GF/B glass fibre filters using a Unifilter Cell harvester (PerkinElmer Life Sciences) and six washes of 300 μl of ice-cold buffer. The Unifilter plates were dried at room temperature for at least 1 h and the radioactivity retained on the filters was determined on a Beta Trilux counter (PerkinElmer Life Sciences), following addition of 40 μl of Optiphase Hi-Safe 3 (Wallac) liquid scintillation. Non specific binding was defined in the presence of […] unlabelled PGD2. Assays were performed in duplicate.

In a further experiment the target is T2, DP receptor (Homo sapiens, UniProt Q13258).
T2 construct: expressed in transfected cells; host or cells: Chinese Hamster Ovary (CHO) cells, G418 selected
T2 sequence (Q13258 1-359): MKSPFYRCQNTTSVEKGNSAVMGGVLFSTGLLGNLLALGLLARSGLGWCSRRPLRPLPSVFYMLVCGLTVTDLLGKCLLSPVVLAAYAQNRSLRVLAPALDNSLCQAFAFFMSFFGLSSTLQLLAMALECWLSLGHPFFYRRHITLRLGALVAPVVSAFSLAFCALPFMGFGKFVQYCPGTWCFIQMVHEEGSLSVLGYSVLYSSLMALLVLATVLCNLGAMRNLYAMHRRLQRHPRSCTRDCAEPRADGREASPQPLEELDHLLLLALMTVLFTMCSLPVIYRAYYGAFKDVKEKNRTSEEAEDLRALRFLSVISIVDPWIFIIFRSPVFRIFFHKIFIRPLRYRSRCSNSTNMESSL
The experiment can be described thus: [3H]PGD2 radioligand binding on CHO/DP cell membranes. Conditions: competition versus [3H]PGD2, CHO/DP membranes. As to the method:
as §1, §2, §3

Experiment [2] has as its target T1, CRTH2. The experiment in a line: Calcium mobilisation assay in CHO/CRTH2 cells (PGD2-induced calcium flux). The experiment is classed as cell-based. As to conditions: for IC50: inhibition of PGD2-induced calcium flux, read-out: CRTH2 Ca flux IC50. As to the method: as §1
Cells were seeded onto poly-D-lysine coated 96-well plates at a density of 80,000 cells per well and incubated at 37° C. overnight to allow the cells to adhere. Cells were washed twice with HBSS and incubated for 1 h at 37° C. in 100 μl HBSS and 100 μl calcium-3-dye (Molecular Devices) solution, supplemented with 4 mM probenecid. Changes in fluorescence were monitored over a 50 s time course with agonist addition at 17s using a Flexstation (Molecular Devices).

Molecules are shown by their SMILES.

As a reminder, the Ki is the equilibrium dissociation constant of an inhibitor or competing ligand from its target. Higher therefore signals a looser hold on the target. With `COc1ccccc1NS(=O)(=O)c1c(C)n(CC(=O)O)c2ccc(F)cc12` [Compound 16, [5-Fluoro-3-(2-methoxy-phenylsulfamoyl)-2-methyl-indol-1-yl]-acetic acid], the Ki on CRTH2 [1] was 771 nM; at DP receptor, > 10 µM.

As a reminder, the IC50 is the concentration that gives 50% inhibition. Regarding `Cc1c([S+]([O-])c2nc3ccccc3s2)c2cc(F)ccc2n1CC(=O)O` (stereo not shown) [Compound 7, [3-(Benzothiazole-2-sulfinyl)-5-fluoro-2-methyl-indol-1-yl]-acetic acid], the inhibition constant Ki on CRTH2 [1] stood at 54 nM. The IC50 at CRTH2 [2] came to 163 nM.

For `Cc1c(S(=O)(=O)NCc2ccc(Cl)c(Cl)c2)c2cc(F)ccc2n1CC(=O)O` [Compound 19, [3-(3,4-Dichloro-benzylsulfamoyl)-5-fluoro-2-methyl-indol-1-yl]-acetic acid], the Ki was 181 nM on CRTH2 [1] and > 10 µM on DP receptor.

`Cc1c(S(=O)(=O)NCc2ccc(Cl)cc2)c2cc(F)ccc2n1CC(=O)O` [Compound 23, [3-(4-Chloro-benzylsulfamoyl)-5-fluoro-2-methyl-indol-1-yl]-acetic acid]: the inhibition constant Ki on CRTH2 [1] is 164 nM; on DP receptor, > 10 µM.

As for `Cc1c(S(=O)(=O)c2ccc(-c3ccccc3)cc2)c2cc(F)ccc2n1CC(=O)O` [Compound 2], the results for the Ki on CRTH2 [1] and on DP receptor were 75 nM and > 10 µM, respectively. Also, the IC50 at CRTH2 [2] is 163 nM.

With `Cc1c(S(=O)(=O)CCS(C)(=O)=O)c2cc(F)ccc2n1CC(=O)O` [Compound 5, [5-Fluoro-3-(2-methanesulfonyl-ethanesulfonyl)-2-methyl-indol-1-yl]-acetic acid], the Ki is 89 nM at CRTH2 [1] and > 10 µM on DP receptor. Moreover, the IC50 at CRTH2 [2] stood at 268 nM.

Consider `Cc1c(S(=O)(=O)N(C)Cc2ccccc2)c2cc(F)ccc2n1CC(=O)O` [Compound 24, [3-(Benzyl-methyl-sulfamoyl)-5-fluoro-2-methyl-indol-1-yl]-acetic acid], for which the Ki is 119 nM on CRTH2 [1] and > 10 µM on DP receptor.

As for `Cc1c(S(=O)(=O)Nc2ccccc2)c2cc(F)ccc2n1CC(=O)O` [Compound 18, (5-Fluoro-2-methyl-3-phenylsulfamoyl-indol-1-yl)-acetic acid], the values for the Ki at CRTH2 [1] and on DP receptor were 236 nM and > 10 µM, respectively.

The term EC50 denotes the midpoint of the concentration-response curve. As to `CCCCC[C@H](O)/C=C/[C@H]1C(=O)C[C@H](O)[C@@H]1C/C=C\CCCC(=O)O` [PGD2, prostaglandin D2, reference compound], at CRTH2 [2] (agonist, n=3, read-out: EC50 for increase in intracellular Ca2+ mobilisation), the EC50 came to 2.4 nM.

Consider `Cc1c(S(=O)(=O)Nc2cccc(Cl)c2)c2cc(F)ccc2n1CC(=O)O` [Compound 12, [3-(3-Chloro-phenylsulfamoyl)-5-fluoro-2-methyl-indol-1-yl]-acetic acid], for which the Ki on CRTH2 [1] is 45 nM; on DP receptor, > 10 µM. In addition, at CRTH2 [2], the IC50 was 82 nM.

With `Cc1c(S(=O)(=O)CC(=O)O)c2cc(F)ccc2n1CC(=O)O` [Compound 3, (3-Carboxymethanesulfonyl-5-fluoro-2-methyl-indol-1-yl)-acetic acid], the Ki on CRTH2 [1] stood at 2000 nM.

In the case of `Cc1c(S(=O)(=O)Cc2ccccc2)c2cc(F)ccc2n1CC(=O)O` [Compound 10, (5-Fluoro-2-methyl-3-phenylmethanesulfonyl-1H-indol-1-yl)-acetic acid], the Ki at CRTH2 [1] came to 6 nM. The IC50 on CRTH2 [2] amounted to 79 nM.

In the case of `Cc1c(S(=O)(=O)Nc2ccc(Cl)cc2)c2cc(F)ccc2n1CC(=O)O` [Compound 11, [3-(4-Chloro-phenylsulfamoyl)-5-fluoro-2-methyl-indol-1-yl]-acetic acid], the Ki on CRTH2 [1] is 51 nM; at DP receptor, > 10 µM. Moreover, at CRTH2 [2], the IC50 was found to be 197 nM.

The compound `Cc1c(S(=O)(=O)c2ccc3ccccc3n2)c2cc(F)ccc2n1CC(=O)O` [Compound 8, [5-Fluoro-2-methyl-3-(quinoline-2-sulfonyl)-indol-1-yl]-acetic acid] showed a Ki at CRTH2 [1] of 249 nM. For the same compound, the 50% inhibitory concentration (IC50) on CRTH2 [2] is 330 nM.

As to `Cc1c(S(=O)(=O)c2cccc3cccnc23)c2cc(F)ccc2n1CC(=O)O` [Compound 9, [5-Fluoro-2-methyl-3-(quinolin-8-ylsulfonyl)-indol-1-yl]-acetic acid], the values for the Ki on CRTH2 [1] and at DP receptor were 254 nM and > 10 µM, respectively.

Take `Cc1c(S(=O)(=O)Nc2cccnc2)c2cc(F)ccc2n1CC(=O)O` [Compound 25, [5-Fluoro-2-methyl-3-(pyridin-3-ylsulfamoyl)-indol-1-yl]-acetic acid]: the results for the Ki at CRTH2 [1] and on DP receptor were 4250 nM and > 10 µM, respectively.

For the compound `Cc1ccc(NS(=O)(=O)c2c(C)n(CC(=O)O)c3ccc(F)cc23)cc1` [Compound 22, (5-Fluoro-2-methyl-3-p-tolylsulfamoyl-indol-1-yl)-acetic acid], the results for the Ki on CRTH2 [1] and at DP receptor were 1240 nM and > 10 µM, respectively.

In turn, `Cc1c(S(=O)(=O)CC(N)=O)c2cc(F)ccc2n1CC(=O)O` [Compound 4, (3-Carbamoylmethanesulfonyl-5-fluoro-2-methyl-indol-1-yl)-acetic acid] returned a Ki on CRTH2 [1] of 2300 nM.

Regarding `COc1ccc(NS(=O)(=O)c2c(C)n(CC(=O)O)c3ccc(F)cc23)cc1` [Compound 17, [5-Fluoro-3-(4-methoxy-phenylsulfamoyl)-2-methyl-indol-1-yl]-acetic acid], the results for the Ki at CRTH2 [1] and at DP receptor were 1450 nM and > 10 µM, respectively.

`Cc1c(S(=O)(=O)Nc2ccc(F)cc2)c2cc(F)ccc2n1CC(=O)O` [Compound 13, [3-(4-Fluoro-phenylsulfamoyl)-5-fluoro-2-methyl-indol-1-yl]-acetic acid]: the Ki on CRTH2 [1] amounted to 182 nM. Also, on CRTH2 [2], the IC50 came to 1650 nM.

On CRTH2 [1], `Cc1c(S(=O)(=O)c2nc3ccccc3s2)c2cc(F)ccc2n1CC(=O)O` [Compound 6, [3-(Benzothiazole-2-sulfonyl)-5-fluoro-2-methyl-indol-1-yl]-acetic acid] returned a Ki of 209 nM. Moreover, the IC50 at CRTH2 [2] was determined as 345 nM.

For `Cc1c(S(=O)(=O)NCc2ccccc2)c2cc(F)ccc2n1CC(=O)O` [Compound 15, (3-Benzylsulfamoyl-5-fluoro-2-methyl-indol-1-yl)-acetic acid], the inhibitory constant (Ki) on CRTH2 [1] is 278 nM; at DP receptor, > 10 µM.

`Cc1c(S(=O)(=O)Nc2ccccc2Cl)c2cc(F)ccc2n1CC(=O)O` [Compound 14, [3-(2-Chloro-phenylsulfamoyl)-5-fluoro-2-methyl-indol-1-yl]-acetic acid]: the affinity on CRTH2 [1] corresponds to a Ki of 225 nM. Moreover, on CRTH2 [2], the IC50 was found to be 390 nM.

Take `COc1cccc(NS(=O)(=O)c2c(C)n(CC(=O)O)c3ccc(F)cc23)c1` [Compound 20, [5-Fluoro-3-(3-methoxy-phenylsulfamoyl)-2-methyl-indol-1-yl]-acetic acid]: the Ki at CRTH2 [1] is 531 nM; at DP receptor, > 10 µM.
